Measurements: paper PMC11488158 (BJA: British Journal of Anaesthesia, 2024)

Assays:
[1] = target: T1, ryanodine receptor 1 (RyR1) (Oryctolagus cuniculus, UniProt P11716); assay: protection from AziPm photolabelling ([…] propofol) in purified RyR1; the IC50 is from [3H]ryanodine binding in wild-type heavy SR vesicles at pCa […] (species not given, assumed)
T1 construct: full-length RyR1 purified from wild-type rabbit skeletal muscle; with FKBP12.6

[2] = target: T2, ryanodine receptor 1 (RyR1) (Homo sapiens, UniProt P21817); assay: Fura-2 Ca2+ imaging, inhibition of Ca2+ release induced by […] ryanodine; type: cell-based
T2 construct: wild-type human skeletal myotubes

[3] = target: T1, ryanodine receptor 1 (RyR1); assay: photoaffinity labelling of purified RyR1-FKBP12.[…] with MS; the IC50 is from [3H]ryanodine binding in wild-type heavy SR vesicles at pCa […] (species not given, assumed)

T1 sequence (P11716 whole entry): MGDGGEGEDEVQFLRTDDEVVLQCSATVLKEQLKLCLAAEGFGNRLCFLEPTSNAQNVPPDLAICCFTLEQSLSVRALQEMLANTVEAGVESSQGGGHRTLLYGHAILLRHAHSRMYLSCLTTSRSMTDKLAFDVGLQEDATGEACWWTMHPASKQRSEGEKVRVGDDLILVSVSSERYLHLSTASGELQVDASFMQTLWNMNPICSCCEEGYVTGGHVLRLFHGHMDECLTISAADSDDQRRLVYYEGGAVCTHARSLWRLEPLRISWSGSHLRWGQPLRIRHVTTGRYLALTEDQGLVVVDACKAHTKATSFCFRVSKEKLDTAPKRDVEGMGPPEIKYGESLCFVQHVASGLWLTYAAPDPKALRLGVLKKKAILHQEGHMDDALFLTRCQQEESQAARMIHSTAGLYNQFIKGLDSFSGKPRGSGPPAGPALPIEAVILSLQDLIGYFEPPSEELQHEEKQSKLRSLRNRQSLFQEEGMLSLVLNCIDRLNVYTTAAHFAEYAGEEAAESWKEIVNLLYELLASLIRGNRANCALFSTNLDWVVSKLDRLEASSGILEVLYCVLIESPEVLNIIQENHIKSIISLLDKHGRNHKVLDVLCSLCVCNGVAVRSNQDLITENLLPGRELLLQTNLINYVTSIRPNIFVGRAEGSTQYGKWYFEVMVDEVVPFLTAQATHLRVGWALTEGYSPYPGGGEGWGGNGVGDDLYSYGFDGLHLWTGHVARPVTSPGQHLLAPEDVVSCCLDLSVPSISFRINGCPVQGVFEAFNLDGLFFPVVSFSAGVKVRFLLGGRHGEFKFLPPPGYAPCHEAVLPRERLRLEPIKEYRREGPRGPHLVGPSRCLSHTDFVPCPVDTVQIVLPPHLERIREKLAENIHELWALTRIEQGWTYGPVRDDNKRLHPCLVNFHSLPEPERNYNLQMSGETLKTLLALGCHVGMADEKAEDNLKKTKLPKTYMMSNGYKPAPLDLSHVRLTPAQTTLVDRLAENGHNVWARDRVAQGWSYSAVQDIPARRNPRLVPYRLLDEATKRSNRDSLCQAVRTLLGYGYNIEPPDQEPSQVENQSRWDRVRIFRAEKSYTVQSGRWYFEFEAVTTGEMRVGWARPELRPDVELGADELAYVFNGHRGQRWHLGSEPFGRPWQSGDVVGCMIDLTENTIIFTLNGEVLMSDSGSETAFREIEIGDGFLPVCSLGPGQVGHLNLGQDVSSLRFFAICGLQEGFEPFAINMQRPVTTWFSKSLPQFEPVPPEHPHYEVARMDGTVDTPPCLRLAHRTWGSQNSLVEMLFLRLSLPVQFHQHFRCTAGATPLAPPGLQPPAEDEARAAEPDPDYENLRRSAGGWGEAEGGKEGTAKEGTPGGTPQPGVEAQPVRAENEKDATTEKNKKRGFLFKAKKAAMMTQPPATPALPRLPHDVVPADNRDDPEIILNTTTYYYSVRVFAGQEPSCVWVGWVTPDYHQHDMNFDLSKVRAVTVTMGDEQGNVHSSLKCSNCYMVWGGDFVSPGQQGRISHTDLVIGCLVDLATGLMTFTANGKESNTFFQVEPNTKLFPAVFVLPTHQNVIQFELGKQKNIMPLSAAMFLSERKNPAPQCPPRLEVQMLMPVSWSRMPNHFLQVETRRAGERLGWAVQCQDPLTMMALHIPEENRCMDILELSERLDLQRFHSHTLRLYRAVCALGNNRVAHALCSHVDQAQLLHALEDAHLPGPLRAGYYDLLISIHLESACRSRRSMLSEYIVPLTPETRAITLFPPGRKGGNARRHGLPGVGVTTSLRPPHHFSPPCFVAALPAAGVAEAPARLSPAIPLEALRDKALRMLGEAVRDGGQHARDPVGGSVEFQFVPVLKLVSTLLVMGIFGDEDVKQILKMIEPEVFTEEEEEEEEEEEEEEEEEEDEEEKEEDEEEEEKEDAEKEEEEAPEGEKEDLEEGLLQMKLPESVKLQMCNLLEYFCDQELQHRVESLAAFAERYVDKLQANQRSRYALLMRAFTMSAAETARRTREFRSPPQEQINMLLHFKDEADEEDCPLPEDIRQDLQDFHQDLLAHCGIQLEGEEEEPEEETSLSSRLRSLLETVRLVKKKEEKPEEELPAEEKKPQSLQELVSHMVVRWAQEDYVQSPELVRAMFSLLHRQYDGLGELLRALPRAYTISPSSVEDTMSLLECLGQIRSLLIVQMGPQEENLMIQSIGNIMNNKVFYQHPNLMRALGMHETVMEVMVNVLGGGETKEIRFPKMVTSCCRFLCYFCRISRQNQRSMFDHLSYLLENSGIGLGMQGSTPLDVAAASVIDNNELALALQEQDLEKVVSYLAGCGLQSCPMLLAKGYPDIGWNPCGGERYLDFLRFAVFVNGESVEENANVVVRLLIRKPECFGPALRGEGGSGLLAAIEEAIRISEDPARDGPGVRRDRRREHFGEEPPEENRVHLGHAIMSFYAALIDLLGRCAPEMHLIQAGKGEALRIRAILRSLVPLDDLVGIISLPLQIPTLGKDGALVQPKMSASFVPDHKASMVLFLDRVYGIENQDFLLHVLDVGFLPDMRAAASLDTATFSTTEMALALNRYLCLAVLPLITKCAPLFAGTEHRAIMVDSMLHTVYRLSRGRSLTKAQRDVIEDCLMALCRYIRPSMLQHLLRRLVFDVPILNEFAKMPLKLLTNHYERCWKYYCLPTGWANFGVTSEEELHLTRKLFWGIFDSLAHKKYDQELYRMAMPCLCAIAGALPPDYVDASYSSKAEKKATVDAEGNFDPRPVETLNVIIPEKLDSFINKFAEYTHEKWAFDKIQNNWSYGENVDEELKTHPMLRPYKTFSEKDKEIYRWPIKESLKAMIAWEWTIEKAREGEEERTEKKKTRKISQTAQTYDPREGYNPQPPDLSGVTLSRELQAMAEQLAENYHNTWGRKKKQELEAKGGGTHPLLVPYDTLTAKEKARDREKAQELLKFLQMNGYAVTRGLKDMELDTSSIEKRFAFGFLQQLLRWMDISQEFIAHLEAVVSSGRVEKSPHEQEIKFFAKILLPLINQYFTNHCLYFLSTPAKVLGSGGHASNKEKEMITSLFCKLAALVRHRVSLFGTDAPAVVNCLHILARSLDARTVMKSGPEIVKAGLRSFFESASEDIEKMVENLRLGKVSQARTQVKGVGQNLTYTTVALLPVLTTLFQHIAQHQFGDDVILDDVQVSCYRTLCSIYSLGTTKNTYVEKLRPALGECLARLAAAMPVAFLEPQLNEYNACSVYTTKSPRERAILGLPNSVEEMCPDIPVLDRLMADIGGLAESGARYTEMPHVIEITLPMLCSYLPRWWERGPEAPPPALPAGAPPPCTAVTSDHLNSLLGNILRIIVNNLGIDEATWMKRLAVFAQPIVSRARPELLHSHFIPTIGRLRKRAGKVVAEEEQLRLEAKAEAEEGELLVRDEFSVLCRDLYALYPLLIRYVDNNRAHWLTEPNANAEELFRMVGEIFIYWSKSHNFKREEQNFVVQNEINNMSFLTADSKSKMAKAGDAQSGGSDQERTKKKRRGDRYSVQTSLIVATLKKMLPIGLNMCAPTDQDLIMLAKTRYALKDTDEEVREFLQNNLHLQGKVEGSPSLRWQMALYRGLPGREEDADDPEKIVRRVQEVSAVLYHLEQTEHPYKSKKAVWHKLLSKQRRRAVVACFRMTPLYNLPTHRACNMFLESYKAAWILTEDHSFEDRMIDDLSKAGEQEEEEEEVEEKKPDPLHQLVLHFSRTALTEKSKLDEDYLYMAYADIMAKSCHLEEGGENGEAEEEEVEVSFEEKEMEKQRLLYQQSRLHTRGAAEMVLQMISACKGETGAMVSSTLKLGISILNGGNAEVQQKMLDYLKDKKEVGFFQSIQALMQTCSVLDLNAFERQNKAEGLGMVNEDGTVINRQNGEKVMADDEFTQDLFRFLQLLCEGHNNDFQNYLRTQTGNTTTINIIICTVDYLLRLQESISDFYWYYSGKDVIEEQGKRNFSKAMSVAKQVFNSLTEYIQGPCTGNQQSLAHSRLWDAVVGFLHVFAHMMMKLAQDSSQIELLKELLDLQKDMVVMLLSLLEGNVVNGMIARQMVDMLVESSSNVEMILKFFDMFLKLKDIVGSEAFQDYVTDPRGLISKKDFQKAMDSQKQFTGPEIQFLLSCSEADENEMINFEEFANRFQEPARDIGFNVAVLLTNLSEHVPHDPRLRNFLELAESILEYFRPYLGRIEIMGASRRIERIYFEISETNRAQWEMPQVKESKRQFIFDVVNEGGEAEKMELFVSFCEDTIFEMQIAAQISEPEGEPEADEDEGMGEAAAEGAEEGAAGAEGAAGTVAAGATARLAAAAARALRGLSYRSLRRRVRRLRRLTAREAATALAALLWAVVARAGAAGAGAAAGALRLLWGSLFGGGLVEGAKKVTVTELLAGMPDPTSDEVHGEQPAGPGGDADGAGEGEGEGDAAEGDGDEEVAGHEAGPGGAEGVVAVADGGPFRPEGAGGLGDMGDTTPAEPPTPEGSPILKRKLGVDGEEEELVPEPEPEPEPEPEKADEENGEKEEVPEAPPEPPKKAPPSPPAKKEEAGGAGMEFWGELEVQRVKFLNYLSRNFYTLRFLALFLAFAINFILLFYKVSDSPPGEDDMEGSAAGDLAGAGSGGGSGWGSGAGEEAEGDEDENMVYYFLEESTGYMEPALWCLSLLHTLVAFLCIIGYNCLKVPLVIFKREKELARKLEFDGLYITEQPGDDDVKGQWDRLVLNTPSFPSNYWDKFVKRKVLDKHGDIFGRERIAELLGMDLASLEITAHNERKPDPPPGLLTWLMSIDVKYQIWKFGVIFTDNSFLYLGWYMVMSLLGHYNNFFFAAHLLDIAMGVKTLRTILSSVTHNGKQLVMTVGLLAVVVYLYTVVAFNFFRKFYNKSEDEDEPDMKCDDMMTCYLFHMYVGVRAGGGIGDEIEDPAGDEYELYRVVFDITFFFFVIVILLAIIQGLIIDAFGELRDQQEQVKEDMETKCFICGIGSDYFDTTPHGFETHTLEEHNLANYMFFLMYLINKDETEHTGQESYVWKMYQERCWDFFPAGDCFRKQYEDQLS

CC(C)c1cccc(C(C)C)c1O [Propofol]
IC50 [1]: 5.8 µM
IC50 [2]: 29.5 µM

CC(C)c1ccc(C2(C(F)(F)F)N=N2)cc1O [m-azipropofol]
IC50 [3]: 6.9 µM
